Paper PMC3171737 (Journal of medicinal chemistry, 2011)
Read-outs that look alike come from different tables or passages of the source. Each block holds one compound with its values, some of them ahead of it.

Experiments:
[1] = system: H3K9me2 levels in MDA-MB-231 cells; assay: H3K9me2 In-Cell Western; type: cell-based
HCT116 p53−/− cells = assay: MTT assay, HCT116 p53−/−; type: cell-based; conditions: Homo sapiens, HCT-116, 48 h, read-out: MTT EC50
MDA-MB-231 cells = assay: MTT cell toxicity assay, MDA-MB-231; type: cell-based; conditions: Homo sapiens, MDA-MB-231, 48 h, read-out: MTT EC50
[2] = system: H3K9me2 levels in HCT116 wt cells; assay: H3K9me2 ICW assay, HCT116 wt; type: cell-based; conditions: Homo sapiens, HCT-116, 48 h, read-out: ICW IC50
HCT116 wt cells = assay: MTT assay, HCT116 wt; type: cell-based; conditions: Homo sapiens, HCT-116, 48 h, read-out: MTT EC50
[3] = system: H3K9me2 levels in PC3 cells; assay: H3K9me2 ICW assay, PC3; type: cell-based; conditions: Homo sapiens, PC-3, 48 h, read-out: ICW IC50
[4] = system: H3K9me2 levels in MCF7 cells; assay: H3K9me2 ICW assay, MCF7; type: cell-based; conditions: Homo sapiens, MCF7, 48 h, read-out: ICW IC50
[5] = system: H3K9me2 levels in 22RV1 cells; assay: H3K9me2 ICW assay, 22RV1; type: cell-based; conditions: Homo sapiens, 22Rv1, 48 h, read-out: ICW IC50
G9a = biological target: T1, G9a (Homo sapiens, UniProt Q96KQ7); assay: G9a SAHH-coupled assay; type: biochemical; conditions: versus compound 5
T1 sequence (Q96KQ7 1-1210): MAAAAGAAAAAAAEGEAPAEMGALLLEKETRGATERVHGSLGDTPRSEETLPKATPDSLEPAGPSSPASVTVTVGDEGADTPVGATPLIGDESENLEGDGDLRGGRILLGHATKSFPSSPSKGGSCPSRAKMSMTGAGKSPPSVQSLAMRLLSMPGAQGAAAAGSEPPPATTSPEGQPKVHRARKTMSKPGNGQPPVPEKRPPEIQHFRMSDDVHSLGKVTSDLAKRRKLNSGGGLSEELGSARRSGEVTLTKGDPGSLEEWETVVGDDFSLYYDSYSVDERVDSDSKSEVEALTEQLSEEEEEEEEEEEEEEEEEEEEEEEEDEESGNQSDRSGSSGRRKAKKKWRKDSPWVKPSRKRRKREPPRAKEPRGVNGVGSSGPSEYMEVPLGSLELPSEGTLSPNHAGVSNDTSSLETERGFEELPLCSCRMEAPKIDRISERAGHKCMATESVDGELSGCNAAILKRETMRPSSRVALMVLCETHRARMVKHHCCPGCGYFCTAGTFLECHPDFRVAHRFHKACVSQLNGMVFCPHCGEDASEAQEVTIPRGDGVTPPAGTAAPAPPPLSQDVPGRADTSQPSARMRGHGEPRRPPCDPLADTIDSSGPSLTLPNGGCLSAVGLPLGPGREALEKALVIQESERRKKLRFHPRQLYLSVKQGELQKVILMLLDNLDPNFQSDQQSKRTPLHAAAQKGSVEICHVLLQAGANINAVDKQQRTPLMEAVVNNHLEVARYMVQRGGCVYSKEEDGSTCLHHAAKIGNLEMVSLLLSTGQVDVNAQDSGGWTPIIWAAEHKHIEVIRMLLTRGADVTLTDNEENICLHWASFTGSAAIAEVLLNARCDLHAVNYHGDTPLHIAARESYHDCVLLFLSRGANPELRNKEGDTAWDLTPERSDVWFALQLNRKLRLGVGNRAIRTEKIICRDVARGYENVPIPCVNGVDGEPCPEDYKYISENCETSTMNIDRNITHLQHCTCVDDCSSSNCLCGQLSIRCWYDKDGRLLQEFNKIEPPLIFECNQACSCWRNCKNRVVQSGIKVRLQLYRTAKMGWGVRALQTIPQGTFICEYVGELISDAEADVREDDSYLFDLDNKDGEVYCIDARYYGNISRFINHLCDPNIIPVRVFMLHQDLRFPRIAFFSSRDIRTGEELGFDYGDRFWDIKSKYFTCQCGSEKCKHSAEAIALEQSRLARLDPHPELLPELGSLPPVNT

[6] = Homo sapiens, MDA-MB-231, 48 h, read-out: Cellular IC50 (Reduction of H3K9me2 (ICW)), Table 2, MDA-MB-231 cells, 48 h
[7] = Homo sapiens, MDA-MB-231, 48 h, read-out: Cellular IC50 (Reduction of H3K9me2 (ICW)), Table 4, MDA-MB-231 cells, 48 h
[8] = read-out: Cellular IC50 (Reduction of H3K9me2 (ICW)), Table 2, MDA-MB-231 cells, 48 h

Compound: COc1cc2c(NC3CCN(C(C)C)CC3)nc(C3CCCCC3)nc2cc1OCCCN1CCCC1 [Compound 5, 2-Cyclohexyl-N-(1-isopropylpiperidin-4-yl)-6-methoxy-7-(3-(pyrrolidin-1-yl)propoxy)quinazolin-4-amine]
- EC50 (HCT116 p53−/− cells): 11 µM
- IC50 ([1]; Homo sapiens, MDA-MB-231, 48 h, read-out: Cellular IC50 (Reduction of H3K9me2 (ICW))): 0.081 µM
- IC50 [1, 6]: ≤ 0.1 µM
- IC50 ([1]; Homo sapiens, MDA-MB-231, 48 h, read-out: ICW IC50): 0.081 µM
- EC50 (MDA-MB-231 cells): 11 µM
- IC50 [2]: 0.21 µM
- EC50 (HCT116 wt cells): 11 µM
- IC50 [3]: 0.059 µM
- IC50 [4]: 0.07 µM
- IC50 [5]: 0.048 µM

Compound: COc1cc2c(NC3CCN(C4CCCCC4)CC3)nc(N3CCCN(C(C)C)CC3)nc2cc1OCCCN1CCCCC1 [Compound 6, N-(1-cyclohexylpiperidin-4-yl)-2-(4-isopropyl-1,4-diazepan-1-yl)-6-methoxy-7-(3-(piperidin-1-yl)propoxy)quinazolin-4-amine]
- IC50 [1, 7]: < 0.06 µM

Compound: COc1cc2c(NC3CCN(C(C)C)CC3)nc(N3CCCN(Cc4ccccc4)CC3)nc2cc1OCCCN1CCCC1 [Compound 17g, 2-(4-Benzyl-1,4-diazepan-1-yl)-N-(1-isopropylpiperidin-4-yl)-6-methoxy-7-(3-(pyrrolidin-1-yl)propoxy)quinazolin-4-amine]
- IC50 [1, 6]: ≤ 0.1 µM

Compound: COc1cc2c(NC3CCN(C(C)C)CC3)nc(C3CCCCC3)nc2cc1OCCCN1CCCCC1 [Compound 24a, 2-Cyclohexyl-N-(1-isopropylpiperidin-4-yl)-6-methoxy-7-(3-(piperidin-1-yl)propoxy)quinazolin-4-amine]
- Fold lower potency in the G9a biochemical assay compared to compound 5 (G9a): about 10 fold

Next, values leading:

- IC50 ([1]; Homo sapiens, MDA-MB-231, 48 h, read-out: Cellular IC50 (Reduction of H3K9me2 (ICW)), Table 1, MDA-MB-231 cells, 48 h): > 5 µM
Compound: COc1cc2c(NC3CCN(C)CC3)nc(N3CCCN(C)CC3)nc2cc1OCCCN(C)C [Compound 2]

- IC50 [1, 7]: < 0.06 µM
Compound: COc1cc2c(NC3CCN(CC4CCCCC4)CC3)nc(N3CCCN(C(C)C)CC3)nc2cc1OCCCN1CCCCC1 [Compound 7, N-(1-(cyclohexylmethyl)piperidin-4-yl)-2-(4-isopropyl-1,4-diazepan-1-yl)-6-methoxy-7-(3-(piperidin-1-yl)propoxy)quinazolin-4-amine]

- IC50 [1, 6]: ≤ 0.1 µM
- IC50 [1, 8]: 0.1 µM
Compound: COc1cc2c(NC3CCN(C(C)C)CC3)nc(N3CCCN(C4CCCCC4)CC3)nc2cc1OCCCN1CCCC1 [Compound 17d, 2-(4-Cyclohexyl-1,4-diazepan-1-yl)-N-(1-isopropylpiperidin-4-yl)-6-methoxy-7-(3-(pyrrolidin-1-yl)propoxy)quinazolin-4-amine]

- IC50 [1, 6]: ≤ 0.1 µM
Compound: COc1cc2c(NC3CCN(C(C)C)CC3)nc(N3CCCN(CC4CCCCC4)CC3)nc2cc1OCCCN1CCCC1 [Compound 17e, 2-(4-(Cyclohexylmethyl)-1,4-diazepan-1-yl)-N-(1-isopropylpiperidin-4-yl)-6-methoxy-7-(3-(pyrrolidin-1-yl)propoxy)quinazolin-4-amine]

- IC50 [1, 6]: ≤ 0.1 µM
- IC50 [1, 8]: 0.1 µM
Compound: COc1cc2c(NC3CCN(C(C)C)CC3)nc(N3CCCCCC3)nc2cc1OCCCN1CCCC1 [Compound 17i, 2-(Azepan-1-yl)-N-(1-isopropylpiperidin-4-yl)-6-methoxy-7-(3-(pyrrolidin-1-yl)propoxy)quinazolin-4-amine]

- IC50 [1, 7]: < 0.06 µM
Compound: COc1cc2c(NC3CCN(C(C)C)CC3)nc(N3CCCN(C(C)C)CC3)nc2cc1OCCCN1CCCCC1 [Compound 25, 2-(4-Isopropyl-1,4-diazepan-1-yl)-N-(1-isopropylpiperidin-4-yl)-6-methoxy-7-(3-(piperidin-1-yl)propoxy)quinazolin-4-amine]

- IC50 [1, 7]: < 0.06 µM
Compound: COc1cc2c(NC3CCN(C4CCCCC4)CC3)nc(N3CCCN(C)CC3)nc2cc1OCCCN1CCCCC1 [Compound 26, N-(1-cyclohexylpiperidin-4-yl)-6-methoxy-2-(4-methyl-1,4-diazepan-1-yl)-7-(3-(piperidin-1-yl)propoxy)quinazolin-4-amine]
